# Reference: patent US8133898B2, “Renin inhibitors” (Takeda Pharmaceutical Company Limited, priority 2008, dated 2012)
# What was measured:
# Recombinant human renin = molecular target: T1, Recombinant human renin (Homo sapiens, UniProt P00797); experiment: in vitro enzymatic activity of renin inhibitors (fluorescence); format: biochemical; details: fluorogenic peptide substrate
# T1 construct: with trypsin, and isolate the active form (residues 67-406); made in house; host or cells: FreeStyle 293-F cells (transient expression of pcDNA3.1(+)/hREN)
# T1 sequence (P00797 67-406): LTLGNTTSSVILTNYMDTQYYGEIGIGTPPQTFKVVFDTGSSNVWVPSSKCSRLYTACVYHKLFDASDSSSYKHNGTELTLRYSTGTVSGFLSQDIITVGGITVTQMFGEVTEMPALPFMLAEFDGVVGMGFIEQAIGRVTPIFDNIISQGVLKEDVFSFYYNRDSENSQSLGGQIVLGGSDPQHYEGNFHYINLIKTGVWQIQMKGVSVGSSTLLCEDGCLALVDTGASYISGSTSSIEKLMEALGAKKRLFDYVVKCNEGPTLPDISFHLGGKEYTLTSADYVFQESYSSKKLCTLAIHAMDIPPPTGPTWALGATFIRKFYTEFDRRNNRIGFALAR
# From the text: Test compounds in varying concentrations may be reacted with recombinant human renin in the presence of substrate, e.g., QXL520-γ-Abu-Ile-His-Pro-Phe-His-Leu-Val-Ile-His-Thr-Lys (HiLyteFluo488)-Arg-OH (Anaspec, San Jose, Calif.). The reaction can be followed kinetically using fluorescence (excitation λ=485 nm; emission λ=538 nm). Inhibition constants (IC50) may be calculated by non-linear curve fitting of the compound concentrations and fluorescence intensities to the standard IC50 equation.
# Solutions of test compounds in varying concentrations (≦2 mM final concentration) are prepared in dimethyl sulfoxide (DMSO) and then diluted into assay buffer comprising 50 mM Hepes, 1 mM EDTA, 1 mM DTT, 0.1 mg/ml BSA, 0.01% Brij35, pH 7.4. Alternatively, the assay can be performed with a high BSA concentration, wherein the buffer contains an additional 2% BSA.
# Recombinant human renin (3 nM final concentration) is added to the dilutions and pre-incubated with the compounds for 10 minutes at 37° C. As described in Examples A-C above, human renin can be obtained by expressing preprorenin (residue 1-406) in mammalian cells, treating the prorenin (residues 24-406) contained in the culture supernatant with trypsin, and isolate the active form (residues 67-406). After pre-incubation, the reaction is initiated with 1 μM of substrate QXL520-γ-Abu-Ile-His-Pro-Phe-His-Leu-Val-Ile-His-Thr-Lys (HiLyteFluo488)-Arg-OH (Anaspec, San Jose, Calif.). The final DMSO in the assay is 5%. The total volume of the reaction mixture is 20 μL, which can be placed on Greiner 384-well small volume plates.
# Renin activity may be determined via fluorescence (excitation λ=485 nm; emission λ=538 nm), e.g., on a Molecular Devices SPECTROmax GEMINI XPS. The fluorescence intensity is determined upon the addition of substrate and determined again after incubation at 37° C. for one hour. The fluorescence intensity of a blank (no inhibition) using vehicle alone is also determined. Renin activity is linearly proportional to the change in fluorescence observed (final—initial).
# The percent inhibition of renin at a given compound concentration is defined as: 100%×[1−(Fcompound/Fblank)] where Fcompound is the observed fluorescence at a given concentration of test compound and Fblank is the observed fluorescence in the presence of vehicle alone.
# The pIC50 value (negative log of the molar concentration of the compound that produces 50% inhibition) of a test compound is calculated by non-linear least squares curve fitting of the equation: Percent Inhibition=100%/(1+(10−pIC50/10 log [I])) to percent inhibition versus compound concentration. The 50% inhibitory concentration (IC50) of a test compound is calculated by raising 10 to the negative pIC50 (10-pIC50).
# Human DPP-IV = Human DPP-IV (Homo sapiens, UniProt P27487); experiment: in vitro enzymatic activity of inhibitors against DPP-IV; format: biochemical; details: AP-AFC substrate
# Human DPP-IV, sequence (P27487 whole entry): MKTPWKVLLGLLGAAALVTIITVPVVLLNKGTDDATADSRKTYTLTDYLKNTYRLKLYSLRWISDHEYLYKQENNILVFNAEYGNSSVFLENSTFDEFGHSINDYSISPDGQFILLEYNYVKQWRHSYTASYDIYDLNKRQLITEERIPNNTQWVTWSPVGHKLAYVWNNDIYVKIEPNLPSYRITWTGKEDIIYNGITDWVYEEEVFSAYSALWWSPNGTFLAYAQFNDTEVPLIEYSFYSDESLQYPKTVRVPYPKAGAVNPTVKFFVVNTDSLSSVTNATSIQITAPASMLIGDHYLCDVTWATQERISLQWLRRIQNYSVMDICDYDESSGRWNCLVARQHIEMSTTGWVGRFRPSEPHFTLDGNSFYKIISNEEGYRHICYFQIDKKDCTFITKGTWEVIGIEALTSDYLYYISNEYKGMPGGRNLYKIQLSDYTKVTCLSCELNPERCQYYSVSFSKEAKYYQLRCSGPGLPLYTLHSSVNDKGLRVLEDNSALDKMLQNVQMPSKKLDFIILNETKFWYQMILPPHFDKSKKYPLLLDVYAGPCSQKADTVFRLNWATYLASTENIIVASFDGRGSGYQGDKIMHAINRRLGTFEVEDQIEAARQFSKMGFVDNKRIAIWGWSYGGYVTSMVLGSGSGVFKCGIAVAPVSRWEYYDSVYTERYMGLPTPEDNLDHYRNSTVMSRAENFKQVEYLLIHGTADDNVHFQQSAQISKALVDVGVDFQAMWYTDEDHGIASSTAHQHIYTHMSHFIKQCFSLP
# Protocol: Solutions of test compounds in varying concentrations ([…]) were prepared in dimethyl sulfoxide (DMSO) and then diluted into assay buffer comprising: 20 mM Tris, pH 7.4; 20 mM KCl; and 0.1 mg/mL BSA. Human DPP-IV (0.1 nM final concentration) was added to the dilutions and pre-incubated for 10 minutes at ambient temperature before the reaction was initiated with A-P-7-amido-4-trifluoromethylcoumarin (AP-AFC; 10 μM final concentration). The total volume of the reaction mixture was 10-100 μL depending on assay formats used (384 or 96 well plates). The reaction was followed kinetically (excitation λ=400 nm; emission λ=505 nm) for 5-10 minutes or an end-point was measured after 10 minutes. Inhibition constants (IC50) were calculated from the enzyme progress curves using standard mathematical models.
IC50 (Recombinant human renin),IC50 (Human DPP-IV),SMILES
1 to 10 µM,10 to 100 µM,"Cn1c(=O)c2c(-c3cccc(OCc4cncs4)c3)c(CN)c(NCc3ccc4ccccc4c3)nc2n(C)c1=O [Compound 79, 6-(aminomethyl)-1,3-dimethyl-7-(naphthalen-2-ylmethylamino)-5-(3-(thiazol-5-ylmethoxy)phenyl)pyrido[2,3-d]pyrimidine-2,4(1H,3H)-dione]"
1 to 10 µM,10 to 100 µM,"Cn1c(=O)c2c(-c3cccc(O)c3)c(CN)c(NCc3ccc4ccccc4c3)nc2n(C)c1=O [Compound 80, 6-(aminomethyl)-5-(3-hydroxyphenyl)-1,3-dimethyl-7-(naphthalen-2-ylmethylamino)pyrido[2,3-d]pyrimidine-2,4(1H,3H)-dione]"
1 to 10 µM,< 1 µM,"COc1ccc(F)cc1-c1c(CN)c(NCc2cccc(OCc3ccccc3)c2)nc2c1c(=O)n(C)c(=O)n2C [Compound 82, 6-(aminomethyl)-7-(3-(benzyloxy)benzylamino)-5-(5-fluoro-2-methoxyphenyl)-1,3-dimethylpyrido[2,3-d]pyrimidine-2,4(1H,3H)-dione]"
> 100 µM,1 to 10 µM,"CCCOc1ccc(OCCC)c(CNc2nc3c(c(-c4ccc(Cl)cc4Cl)c2CN)c(=O)n(C)c(=O)n3C)c1 [Compound 84, 6-(aminomethyl)-5-(2,4-dichlorophenyl)-7-(2,5-dipropoxybenzylamino)-1,3-dimethylpyrido[2,3-d]pyrimidine-2,4(1H,3H)-dione]"
1 to 10 µM,> 100 µM,"COc1cc(OC)cc(-c2c(CN)c(NCc3cccc(-n4cccc4)c3)nc3c2c(=O)n(C)c(=O)n3C)c1 [Compound 85, 7-(3-(1H-pyrrol-1-yl)benzylamino)-6-(aminomethyl)-5-(3,5-dimethoxyphenyl)-1,3-dimethylpyrido[2,3-d]pyrimidine-2,4(1H,3H)-dione]"
10 to 100 µM,> 100 µM,"CCNCc1c(NCc2ccc3ccccc3c2)nc2c(c1-c1cc(OC)cc(OC)c1)c(=O)n(C)c(=O)n2C [Compound 86, 5-(3,5-dimethoxyphenyl)-6-((ethylamino)methyl)-1,3-dimethyl-7-(naphthalen-2-ylmethylamino)pyrido[2,3-d]pyrimidine-2,4(1H,3H)-dione]"
1 to 10 µM,< 1 µM,"COc1ccc(F)cc1-c1c(CN)c(NCc2ccccc2C(F)(F)F)nc2c1c(=O)n(C)c(=O)n2C [Compound 87, 6-(Aminomethyl)-5-(5-fluoro-2-methoxyphenyl)-1,3-dimethyl-7-(2-(trifluoromethyl)benzylamino)pyrido[2,3-d]pyrimidine-2,4(1H,3H)-dione]"
1 to 10 µM,10 to 100 µM,"Cn1c(=O)c2c(-c3cccc(OCc4cnc(Cl)s4)c3)c(CN)c(NCc3ccc4ccccc4c3)nc2n(C)c1=O [Compound 89, 6-(Aminomethyl)-5-(3-((2-chlorothiazol-5-yl)methoxy)phenyl)-1,3-dimethyl-7-(naphthalen-2-ylmethylamino)pyrido[2,3-d]pyrimidine-2,4(1H,3H)-dione]"
1 to 10 µM,1 to 10 µM,"Cn1c(=O)c2c(-c3cccc(F)c3)c(CN)c(NCc3ccc4ccccc4c3)nc2n(C)c1=O [Compound 90, 6-(Aminomethyl)-5-(3-fluorophenyl)-1,3-dimethyl-7-(naphthalen-2-ylmethylamino)pyrido[2,3-d]pyrimidine-2,4(1H,3H)-dione]"
1 to 10 µM,< 1 µM,"Cn1c(=O)c2c(-c3cc(F)ccc3Br)c(CN)c(NC(Cc3ccccc3)c3ccccc3)nc2n(C)c1=O (stereo not shown) [Compound 91, 6-(Aminomethyl)-5-(2-bromo-5-fluorophenyl)-7-(1,2-diphenylethylamino)-1,3-dimethylpyrido[2,3-d]pyrimidine-2,4(1H,3H)-dione]"
10 to 100 µM,< 1 µM,"COc1ccc(F)cc1-c1c(CN)c(NCCc2ccccc2)nc2c1c(=O)n(C)c(=O)n2C [Compound 93, 6-(Aminomethyl)-5-(5-fluoro-2-methoxyphenyl)-1,3-dimethyl-7-(phenethylamino)pyrido[2,3-d]pyrimidine-2,4(1H,3H)-dione]"

SMILES,IC50 (Recombinant human renin),IC50 (Human DPP-IV)
"CC(C)COc1ccccc1-c1c(CN)c(NCc2ccc3ccccc3c2)nc2c1c(=O)n(C)c(=O)n2C [Compound 77, 6-(aminomethyl)-5-(2-isobutoxyphenyl)-1,3-dimethyl-7-(naphthalen-2-ylmethylamino)pyrido[2,3-d]pyrimidine-2,4(1H,3H)-dione]",1 to 10 µM,> 100 µM
"COc1ccc(F)cc1-c1c(CN)c(NCc2cccc(OCC(C)C)c2)nc2c1c(=O)n(C)c(=O)n2C [Compound 83, 6-(aminomethyl)-5-(5-fluoro-2-methoxyphenyl)-7-(3-isobutoxybenzylamino)-1,3-dimethylpyrido[2,3-d]pyrimidine-2,4(1H,3H)-dione]",1 to 10 µM,< 1 µM
"CC(C)COc1ccc(Cl)cc1-c1c(CN)c(NCc2ccc3ccccc3c2)nc2c1c(=O)n(C)c(=O)n2C [Compound 88, 6-(Aminomethyl)-5-(5-chloro-2-isobutoxyphenyl)-1,3-dimethyl-7-(naphthalen-2-ylmethylamino)pyrido[2,3-d]pyrimidine-2,4(1H,3H)-dione]",1 to 10 µM,1 to 10 µM
